Experimental findings from patent US20140336182A1, “Aurora Kinase Modulators and Method of Use” (Amgen Inc., priority 2013, published 2014) are described below.

The first assay deals with HeLa cells. The assay can be described thus: HeLa cell 24 hr ploidy assay (DNA content). It counts as cell-based. As to conditions: Homo sapiens, HeLa, 4N ploidy, average, read-out: 24h_4NPloidy EC50_IP (uM Avg). The gist of the method:
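DNA content measured by Hoechst 33342 nuclear staining (0.5 ug/ml, 45 min RT) and high-content imaging of fixed HeLa cells after 24 h compound exposure in 0.25% DMSO. Fractions of 4N and >4N cells fitted to dose curves giving EC50 IP, EC50 transit, Max and Min.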
Regarding `COc1cccc(-c2nnc(Nc3ccc(Oc4ccnc5cc(OC)c(OC)cc45)cc3)c3ccccc23)n1` [compound 101], the EC50 turned out to be 0.009 µM.

On to `COc1cc2nccc(Oc3ccc(Nc4nnc(-c5cccs5)c5ccccc45)cc3F)c2cc1OC` [compound 76], for which the EC50 turned out to be 0.06 µM.

For `COc1cc2nccc(Oc3ccc(Nc4nnc(-c5cc(C)ccn5)c5ccccc45)cc3)c2cc1OC` [compound 117], the EC50 worked out at 0.066 µM.

`COc1cc2nccc(Oc3ccc(Nc4ncc(-c5ccccc5)c5ccccc45)cc3)c2cn1` [compound 145]: the EC50 was more than 1.2 µM.

As for `COc1cnc2c(Oc3ccc(Nc4nnc(-c5cc(F)ccc5OC)c5ccccc45)cc3)ccnc2c1` [compound 80], the EC50 is 0.487 µM.

Regarding `COc1cnc2c(Oc3ccc(Nc4nnc(N5CCN6CCC[C@H]6C5)c5ccccc45)cc3)ccnc2c1` [compound 97], the EC50 turned out to be 0.026 µM.

Turning to `COc1cnc2c(Oc3ccc(Nc4nnc(-c5ccc(C(C)(C)C)cc5)c5ccccc45)cc3)ccnc2c1` [Example 38, 4-(4-tert-butylphenyl)-N-(4-(7-methoxy-1,5-naphthyridin-4-yloxy)phenyl)phthalazin-1-amine], the EC50 was determined as 0.08 µM.

Consider `COc1cnc2c(Oc3ccc(Nc4nnc(-c5ccc6occc6c5)c5ccccc45)cc3)ccnc2c1` [compound 159], for which the EC50 was found to be 0.007 µM.

Still in this assay, the particulars now being: Homo sapiens, HeLa, HeLa cells, 4N ploidy, average, read-out: 24h_4NPloidy EC50_IP (uM Avg).
Turning to `COc1ccc2c(Oc3ccc(Nc4nnc(-c5ccccc5)c5ccccc45)cc3)c(F)cnc2c1` [compound 164], the EC50 is 0.076 µM.

As for `COc1cnc2c(Sc3ccc(Nc4nnc(N5CCc6sccc6C5)c5ccccc45)cc3)ccnc2c1` [compound 578], the EC50 was found to be 0.007 µM.

Regarding `COc1cnc2c(Oc3ccc(Nc4nnc(-c5sccc5C)c5ccccc45)cc3)ccnc2c1` [compound 185], the EC50 came out at 0.241 µM.

Regarding `COCCOc1cc(-c2nnc(Nc3ccc(Oc4ccnc5cc(OC)cnc45)cc3)c3ccccc23)ccc1C` [Example 395, N-(4-(7-Methoxy-1,5-naphthyridin-4-yloxy)phenyl)-4-(3-(2-methoxyethoxy)-4-methylphenyl)phthalazin-1-amine], the EC50 was 0.023 µM.

Consider `Clc1ccc(-c2nnc(Nc3ccc(Oc4ccnc5cccnc45)cc3)c3ccccc23)cc1` [compound 448], for which the EC50 is 0.016 µM.

For the compound `Cc1csc(-c2nnc(Nc3ccc(Sc4ccnc5ccoc45)cc3)c3ccccc23)c1` [compound 468], the EC50 is 0.014 µM.

Regarding `COc1cnc2c(Oc3ccc(Nc4nnc(-c5cc6ccccc6s5)c5ccccc45)cc3)ccnc2c1` [compound 171], the EC50 was determined as 0.004 µM.

With `c1ccc(-c2nnc(Nc3ccc(Sc4ncnc5ccccc45)cc3)c3ccccc23)cc1` [compound 561], the EC50 is more than 1.2 µM.

Turning to `Cc1csc(-c2nnc(Nc3ccc(Oc4ccnc5ccsc45)cc3)c3ccccc23)c1` [compound 289], the EC50 was found to be 0.073 µM.

Consider `CCc1ccc(-c2nnc(Nc3ccc(Oc4ccnc5cc(OC)cnc45)cc3)c3ccccc23)s1` [compound 229], for which the EC50 came out at 0.026 µM.

As to `COc1cnc2c(Oc3ccc(Nc4nnc(-c5cccc(N6CCCCC6)c5)c5ccccc45)cc3)ccnc2c1` [compound 197], the EC50 was found to be 0.021 µM.

In the case of `COc1ccc2c(Cc3ccc(Nc4nnc(-c5ccccc5)c5ccccc45)cc3)ccnc2c1` [compound 319], the EC50 is 0.028 µM.

On to `Cc1ccsc1-c1nnc(Nc2ccc(Oc3ccnc4cc(C#N)ccc34)cc2)c2ccccc12` [compound 184], for which the EC50 is 0.13 µM.

Regarding `COc1cnc2c(Oc3ccc(Nc4nnc(N5CC[C@H]6CCCC[C@@H]6C5)c5ccccc45)cc3)ccnc2c1` [compound 586], the EC50 is 0.028 µM.

As for `COc1cnc2c(Sc3ccc(Nc4nnc(-c5ccc6cn[nH]c6c5)c5ccccc45)cc3)ccnc2c1` [compound 453], the EC50 was less than 0.0023 µM.

For `COc1ccc2nccc(Oc3ccc(Nc4nnc(-c5ccc(C)cn5)c5ccccc45)cc3)c2c1` [compound 554], the EC50 stood at 0.108 µM.

As to `c1ccc(-c2nnc(Nc3ccc(Oc4ccnc5ccsc45)cc3)c3ccccc23)cc1` [compound 251], the EC50 is 0.227 µM.

Take `Cc1cccc(-c2nnc(Nc3ccc(Sc4ccnc5ccoc45)cc3)c3ccccc23)n1` [compound 488]: the EC50 came out at 0.241 µM.

In the case of `COc1cnc2c(Oc3ccc(Nc4nnc(-c5ccc(Cl)c(Cl)c5)c5ccccc45)cc3)ccnc2c1` [compound 201, 4-(3,4-dichlorophenyl)-N-(4-((7-(methyloxy)-1,5-naphthyridin-4-yl)oxy)phenyl)-1-phthalazinamine], the EC50 turned out to be 0.022 µM.

For `COc1cnc2c(Oc3ccc(Nc4nnc(-c5cnc6ccccc6c5)c5ccccc45)cc3)ccnc2c1` [compound 182], the EC50 is 0.032 µM.

As to `O=c1ccc2nccc(Sc3ccc(Nc4nnc(-c5ccc(Cl)cn5)c5ccccc45)cc3)c2[nH]1` [Example 405, 8-(4-(4-(5-Chloropyridin-2-yl)phthalazin-1-ylamino)phenylthio)-1,5-naphthyridin-2(1H)-one], the EC50 amounted to 0.036 µM.

As for `CNC(=O)c1cc(Oc2ccc(Nc3nnc(-c4ccc(Cl)cc4)c4ccccc34)cc2)ccn1` [compound 361], the EC50 was determined as 0.22 µM.

With `COc1cnc2c(Oc3ccc(Nc4nnc(-c5ncc(C)s5)c5ccccc45)cc3)ccnc2c1` [compound 189], the EC50 was 0.191 µM.

As for `COc1ccc(-c2nnc(Nc3ccc(Sc4ccnc5ccoc45)cc3)c3ccccc23)cn1` [compound 485], the EC50 amounted to 0.069 µM.

Take `COc1cnc2c(Oc3ccc(Nc4nnc(-c5ccc(C)c(O)c5)c5ccccc45)cc3)ccnc2c1` [compound 449]: the EC50 was less than 0.0023 µM.

For `C#Cc1ccc(-c2nnc(Nc3ccc(Oc4ccnc5cc(OC)cnc45)cc3)c3ccccc23)cc1` [compound 287], the EC50 stood at 0.06 µM.

For `COc1cc(OC)c2c(Oc3ccc(Nc4nnc(-c5cc(C)cs5)c5ccccc45)cc3)ccnc2c1` [compound 441], the EC50 worked out at 0.008 µM.

Regarding `COc1cnc2c(Oc3ccc(Nc4nnc(-c5cc(C)cs5)c5ccccc45)cc3OC)ccnc2c1` [compound 567], the EC50 is 0.227 µM.

Regarding `COc1cnc2c(Sc3ccc(Nc4nnc(NCCCSC)c5ccccc45)cc3)ccnc2c1` [compound 508], the EC50 amounted to 0.072 µM.

Take `COc1cc(OC)c2c(Oc3ccc(Nc4nnc(-c5ccc(Cl)cc5)c5ccccc45)cc3)ccnc2c1` [compound 435]: the EC50 was determined as 0.009 µM.

As to `Clc1ccc(-c2nnc(Nc3ccc(Sc4ccnc5cc(Br)cnc45)cc3)c3ccccc23)cc1` [compound 324], the EC50 came to 0.029 µM.

Take `c1ccc(-c2nnc(Nc3ccc(Sc4ccnc5ccoc45)cc3)c3ccccc23)cc1` [compound 466]: the EC50 was determined as 0.086 µM.

For the compound `COc1cnc2c(Oc3ccc(Nc4nnc(N5CCN6CCCCC[C@@H]6C5)c5ccccc45)cc3)ccnc2c1` [compound 604], the EC50 was 0.087 µM.

On to `COc1ccc2nccc(Oc3ccc(Nc4nnc(-c5ccccc5)c5ccccc45)cc3)c2c1` [compound 238], for which the EC50 was 0.053 µM.

With `Cc1csc(-c2nnc(Nc3ccc(Sc4ccnc5cc(OC(F)(F)F)ccc45)cc3)c3ccccc23)c1` [compound 499], the EC50 turned out to be 0.052 µM.

`COC1CCN(c2nnc(Nc3ccc(Sc4ccnc5cc(C#N)ccc45)cc3)c3ccccc23)CC1` [compound 534]: the EC50 stood at 0.006 µM.

`COc1cnc2c(Oc3ccc(Nc4nnc(-c5ccc(C)nc5)c5ccccc45)cc3)ccnc2c1` [compound 268]: the EC50 was 0.066 µM.

As for `Cc1ccc(-c2nnc(Nc3ccc(Sc4ccnc5cc(C#N)sc45)cc3)c3ccccc23)cn1` [compound 461], the EC50 was 0.019 µM.

Turning to `Clc1ccc(-c2nnc(Nc3ccc(CN4CCOc5ccccc54)cc3)c3ccccc23)cc1` [compound 349], the EC50 was more than 1.2 µM.

As for `COc1cnc2c(Oc3ccc(Nc4nnc(-c5ccc(F)c(C)c5)c5ccccc45)cc3)ccnc2c1` [compound 246, 4-(4-fluoro-3-methylphenyl)-N-(4-((7-(methyloxy)-1,5-naphthyridin-4-yl)oxy)phenyl)-1-phthalazinamine], the EC50 was 0.03 µM.

In the case of `COc1ccc2nccc(Sc3ccc(Nc4nnc(-c5ccc(Cl)cn5)c5ccccc45)cc3)c2n1` [compound 550], the EC50 is 0.016 µM.

Take `COc1cnc2c(Sc3ccc(Nc4nnc(-c5ccc(Cl)cc5)c5ccccc45)cc3)ccnc2c1` [compound 232]: the EC50 turned out to be 0.004 µM.

In the case of `COc1cnc2c(Oc3ccc(Nc4nnc(-c5cc6ccccc6o5)c5ccccc45)cc3)ccnc2c1` [compound 176], the EC50 was 0.008 µM.

As to `Cc1csc(-c2nnc(Nc3ccc(Oc4ccnc5cccnc45)cc3)c3ccccc23)c1` [compound 447], the EC50 came to 0.012 µM.

In the case of `COc1cnc2c(Oc3ccc(Nc4nnc(-c5cccnc5F)c5ccccc45)cc3)ccnc2c1` [compound 191], the EC50 was more than 1.2 µM.

As to `Cc1ccc(-c2nnc(Nc3ccc(Sc4ccnc5ccoc45)cc3)c3ccccc23)nc1` [compound 482], the EC50 is 0.036 µM.

With `c1cnc2c(Sc3ccc(Nc4nnc(-c5ccc6c(c5)OCO6)c5ccccc45)cc3)ccnc2c1` [compound 443], the EC50 was found to be 0.007 µM.

For the compound `COc1cnc2c(Oc3ccc(Nc4nncc5ccccc45)cc3)ccnc2c1` [compound 542, N-(4-((7-methoxy-1,5-naphthyridin-4-yl)oxy)phenyl)-1-phthalazinamine], the EC50 is 0.382 µM.

In the case of `Clc1ccc(-c2nnc(Nc3ccc(Sc4ccnc5ccccc45)cc3)c3ccccc23)nc1` [compound 365], the EC50 is 0.003 µM.

Staying with this assay, now noted: Homo sapiens, HeLa, HeLa cells, 4N ploidy, given as class symbol, read-out: 24h_4NPloidy EC50_IP (uM Avg).
As for `Fc1cc(F)c2c(Sc3ccc(Nc4nnc(-c5ccccc5)c5ccccc45)cc3)ccnc2c1` [compound 295], the EC50 was less than 0.1 µM.

Regarding `c1ccc(-c2nnc(Nc3ccc(Sc4ccnc5ccccc45)cc3)c3ccccc23)cc1` [compound 294], the EC50 is less than 0.1 µM.

Staying with this assay, now noted: Homo sapiens, HeLa, HeLa cells, average, read-out: 24h_4NPloidy EC50_IP (uM Avg).
For `Clc1ccc(-c2nnc(Nc3ccc(Oc4ccnc5cc(OCc6ccccc6)cnc45)cc3)c3ccccc23)cc1` [compound 610], the EC50 is 0.014 µM.
